Results from patent US20010053774A1, “Non-steroidal ligands for the estrogen receptor” (GLAXO WELLCOME INC.., priority 1994, published 2001).
Read-outs that look alike come from different tables or passages of the source.

Tests used:
rat estrogen receptor = rat estrogen receptor (Rattus norvegicus, UniProt P06211); conditions: for receptor affinity in the receptor binding assay (in words): comparison within the amide analog series
Excerpt: Those skilled in the art will appreciate that several acceptable varieties of rat estrogen receptor binding assays are known and available for initial screening of the compounds of the present invention with respect to their ability to bind to the appropriate receptor. Compounds were initially evaluated as set forth below in an rat estrogen receptor binding assay for the ability to inhibit the binding of [^3H]-estradiol.

[1] = system: Ishikawa human endometrioma cell line; experiment: Ishikawa cell functional assay of estrogenic activity (alkaline phosphatase induction); assay type: cell-based; conditions: for EC50: Ishikawa-Var I cells, 2 days incubation, estrogen agonist activity, read-out: EC50 (concentration inducing 50% of maximal alkaline phosphatase activity); for agonist activity (Emax) in the Ishikawa cell functional assay (in words): comparison with tamoxifen or within the series; for Emax (maximal alkaline phosphatase activity) / Emax: percentage of the alkaline phosphatase activity induced by a saturating concentration of estradiol; for Emax: Ishikawa, read-out: Emax (maximal alkaline phosphatase activity)
Protocol: Subconfluent Ishikawa-Var I cells were removed from maintenance growth conditions and resuspended in phenol red-free DMEM-F12 containing 5% charcoal stripped FBS and 2 mM glutamine at a concentration of 58,500 cells/mL. Cells were plated at a density of 13,000 cells/cm^2 and placed in an incubator (37° C., 5% CO2) for 3 days. Cells were harvested and resuspended in phenol red-free DMEM-F12 containing 1% charcoal stripped FBS, 2 mM glutamine, 100 Units/mL penicillin and 100 μg/mL streptomycin to a concentration of 83,000 cells/mL. Cells were seeded at a density of 8300 cells/well in 96 well plates and allowed to attach overnight. Appropriate drug treatments at 2× concentrations were added in 0.1 mL of medium containing 0.2% DMSO. Plates were incubated for 2 days, media was aspirated and plates washed once with 300 μL 0.9% sterile saline. Plates were frozen at −70° C. and then warmed to RT. The attached cells were assayed for alkaline phosphatase activity by addition of 200 μL of 5 mM p-nitrophenylphosphate in 1 M diethanolamine, pH 10.4, containing 0.1% (w/v) Triton X-100, incubation at 37° C. for 30 min and measurement of absorbance at 405 nm on a Molecular Devices ThermoMax plate reader.

[2] = system: 21 day old female SD rats; experiment: in-vivo anti-uterotrophic activity in immature rats (uterine weight/body weight); parameters: species or system rat; conditions: 10 μmol/kg by gavage for 3 days, compared with tamoxifen
Protocol: In order to evaluate the compounds set forth above for in-vivo anti-uterotrophic activity, groups of five 21 day old female SD rats (30-35 g) were weighed and the average weights recorded for each treatment group as illustrated in FIG. 1. Stock solutions (10×) of the triphenylethylene analogs in ethanol were diluted with 0.5% methyl cellulose and 10 μmol/kg was dosed by gavage to the animals. Estradiol was dissolved in sesame oil and 100 nmol/kg dosed by subcutaneous injection. Animals were dosed for 3 days and sacrificed on day 4 by CO2 asphyxiation. The body weights were obtained, uteri removed, blotted and weighed. Data is expressed as uterine weight/body weight±standard error. Solid bars represent data from animals dosed with test compound alone. Open bars represent data from animals dosed with test compounds 6h prior to a dose of estradiol.

[3] = system: 90 day old estrogen deficient ovariectomized rats; experiment: bone mineral density in ovariectomized rats (lumbar spine and tibia); assay type: in vivo, rat; conditions: 10 μmol/kg orally once a day for 28 days, versus sham-operated
Protocol: As an example of the functional profile of these compounds in bone, Compound No. 9 was evaluated in 90 day old estrogen deficient ovariectomized rats for their ability to inhibit loss of bone mineral density. Ninety day old SD rats were divided into groups of six. […] were surgically ovariectomized. Two days post-ovariectomy, animals were dosed by gavage with either 10 μmol/kg of Compound No. 9 in 0.5% methyl cellulose or vehicle once a day for 28 days. One group of aminals was sham-operated, and 2 days post-ovariectomy dosed with vehicle once a day for 28 days. At 0, 14 and 28 days, rats were anesthesized with isoflurane and placed in the supine position with their spines parallel to the long axis of the densitometer table. The lumbar spine was scanned using the pelvic bones as a landmark. […] The right tibia was analysed with subregional high resolution software, focusing on the 3-5 mm distal from the growth plate previously identified as a region of accelerated bone loss due to ovariectomy.
BMD was measured by dual-energy X-ray absorptiometry using a Hologic QDR-2000 bone densitometer using a regional high-resolution software package with default scan length, width, line spacing and point resolution of 2, 0.75, 0.01 and 0.005 in. respectively.

Chain of rat estrogen receptor (P06211 whole entry): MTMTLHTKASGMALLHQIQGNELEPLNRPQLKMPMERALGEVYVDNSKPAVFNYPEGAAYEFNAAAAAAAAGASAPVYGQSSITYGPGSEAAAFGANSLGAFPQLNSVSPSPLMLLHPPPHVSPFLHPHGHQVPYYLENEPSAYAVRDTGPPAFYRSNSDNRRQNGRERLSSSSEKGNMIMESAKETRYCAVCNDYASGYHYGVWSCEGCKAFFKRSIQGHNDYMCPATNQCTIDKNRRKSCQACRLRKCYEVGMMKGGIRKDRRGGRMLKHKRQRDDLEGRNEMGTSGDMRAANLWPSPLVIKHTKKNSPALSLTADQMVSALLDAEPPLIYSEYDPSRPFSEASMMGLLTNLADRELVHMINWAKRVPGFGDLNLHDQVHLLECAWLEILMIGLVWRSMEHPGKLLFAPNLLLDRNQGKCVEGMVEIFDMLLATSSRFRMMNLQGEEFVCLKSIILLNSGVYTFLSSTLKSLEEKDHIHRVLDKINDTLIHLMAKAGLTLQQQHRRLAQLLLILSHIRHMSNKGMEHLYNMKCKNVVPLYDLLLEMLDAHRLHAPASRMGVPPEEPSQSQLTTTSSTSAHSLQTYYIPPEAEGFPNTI

Row | EC50 ([1]; Homo sapiens, 48 h) | melting point | SMILES | Emax ([1]; Homo sapiens) | further results
1 |  |  | CCC(=C(c1ccccc1)c1ccc(C=CC(=O)N(CC)CC)cc1)c1ccccc1 [Compound No. 1, 3-[4-(1,2-Diphenyl-but-1-enyl)-phenyl]-N,N-diethyl acrylamide] |  | receptor affinity in the receptor binding assay (in words) (rat estrogen receptor): highest affinity; estrogen receptor binding affinity relative to tamoxifen (rat estrogen receptor; higher affinity than tamoxifen): approx. 10 fold; EC50 [1]: 2.3 nM; agonist activity (Emax) in the Ishikawa cell functional assay (in words) [1]: significantly lower agonist activity (Emax) than tamoxifen; Emax (maximal alkaline phosphatase activity) [1]: 11.9 ± 1.2%
2 | 20 nM |  | CCC(=C(c1ccccc1)c1ccc(C=C(C)C(=O)N(CC)CC)cc1)c1ccccc1 [Compound No. 4, 3-[4-(1,2-Diphenyl-but-1-enyl)-phenyl]-N, N-diethyl-2-methyl-acrylamide] | 18.8 ± 2.3% | 
3 | 7.3 nM | 109 to 111 °C | CCC(=C(c1ccccc1)c1ccc(C(C)=CC(=O)N(CC)CC)cc1)c1ccccc1 [Compound No. 5, 3-[4-(1,2-Diphenyl-but-1-enyl)-phenyl]-but-2-enoic acid diethylamide] | 15 ± 3% | 
4 |  | 133 to 135 °C | CCC(=C(c1ccccc1)c1ccc(C=CC(=O)OC)cc1)c1ccccc1 [Compound No. 6, 3-[4-(1,2-Diphenyl-but-1-enyl)-phenyl]-acrylic acid methyl ester] |  | 
5 |  | 101 to 102 °C | CCC(=C(c1ccccc1)c1ccc(C=CC#N)cc1)c1ccccc1 [Compound No. 7, 3-[4-(1,2-Diphenyl-but-1-enyl)-phenyl]-acrylonitrile] |  | 
6 |  | 139 to 140 °C | CCC(=C(c1ccccc1)c1ccc(C=CC(=O)OC(C)(C)C)cc1)c1ccccc1 [Compound No. 8, 3-[4-(1,2-Diphenyl-but-1-enyl)-phenyl]-acrylic acid tert-butyl ester] |  | 
7 | 58 nM |  | CCC(=C(c1ccccc1)c1ccc(C=CC(=O)O)cc1)c1ccccc1 [Compound No. 9, 3-[4-(1,2-Diphenyl-but-1-enyl)-phenyl]-acrylic acid] | 3.8 ± 0.9% | residual agonist activity, uterine weight/body weight (FIG. 1) [2]: less residual agonist activity than tamoxifen; agonist activity (Emax) in the Ishikawa cell functional assay (in words) [1]: lowest residual agonist activity; bone mineral density (BMD), lumbar spine and tibia (FIG. 2) [3]: full agonist activity
8 |  |  | CCC(=C(c1ccccc1)c1ccc(C=CC(=O)N(C2CCCCC2)C2CCCCC2)cc1)c1ccccc1 [Compound No. 12, N,N-Dicyclohexyl-3-[4-(1,2-diphenyl-but-1-enyl)-phenyl] acrylamide] |  | receptor affinity in the receptor binding assay (in words) (rat estrogen receptor): reduced receptor affinity; EC50 [1]: 70 nM; Emax (maximal alkaline phosphatase activity) [1]: 19.4 ± 2.0%
9 |  | 158 to 159 °C | CCC(=C(c1ccccc1)c1ccc(C=Cc2noc(C)n2)cc1)c1ccccc1 [Compound No. 18, 3-{2-[4-(1,2-Diphenyl-but-1-enyl)-phenyl]-vinyl}-5-methyl-[1,2,4]-oxadiazole] |  | 
10 |  | 80 to 83 °C | CCC(=C(c1ccccc1)c1ccc(C=CCO)cc1)c1ccccc1 [Compound No. 19, 3-[4-(1,2-Diphenyl-but-1-enyl)-phenyl]-prop-2-ene-1-ol] |  | 
11 | 0.01 nM |  | C[C@]12CC[C@@H]3c4ccc(O)cc4CC[C@H]3[C@@H]1CC[C@@H]2O [Estradiol, estradiol, reference compound] | 100% | 
12 | 33 nM |  | CC/C(=C(\c1ccccc1)c1ccc(OCCN(C)C)cc1)c1ccccc1 [Tamoxifen, (Z)-1,2-diphenyl-1-[4-[2-(dimethylamino)ethoxy]phenyl]-1-butene, reference compound] | 16.5 ± 0.6% | 
13 | 4.9 nM | 42 to 44 °C | CCC(=C(c1ccccc1)c1ccc(C2CC2C(=O)N(CC)CC)cc1)c1ccccc1 (stereo not drawn) [compound 3, 2-[4-(1,2-Diphenyl-but-1-enyl)-phenyl]cyclopropanecarboxylic acid diethylamide] | 15.7 ± 1.8% | 
14 | 6.9 nM | 150 to 154 °C | CCC(=C(c1ccccc1)c1ccc(C=CC(=O)N2CCOCC2)cc1)c1ccccc1 [compound 10, 3-[4-(1,2-Diphenyl-but-1-enyl)-phenyl]-1-morpholin-4-yl-prop-2-en-1-one] | 14.8 ± 2.4% | 
15 | 11 nM | 132 to 135 °C | CCC(=C(c1ccccc1)c1ccc(C=CC(=O)NCCCOC)cc1)c1ccccc1 [compound 11, 3-[4-(1,2-Diphenyl-but-1-enyl)-phenyl]-N-(3-methoxy-propyl)-acrylamide] | 14 ± 1.5% | 
16 |  |  | CCC(=C(c1ccccc1)c1ccc(C=CC(=O)N(CC)CCN(C)C)cc1)c1ccccc1 [compound 13, N-(2-Dimethylamino-ethyl)-3-[4-(1,2-diphenyl-but-1-enyl)-phenyl]-N-ethyl acrylamide] |  | EC50 [1]: 4.6 nM; Emax (maximal alkaline phosphatase activity) [1]: 16.5 ± 1.7%
17 |  |  | CCCCCCCCN(C)C(=O)C=Cc1ccc(C(=C(CC)c2ccccc2)c2ccccc2)cc1 [compound 14, 3-[4-(1,2-Diphenyl-but-1-enyl)-phenyl]-N-methyl-N-octyl acrylamide] |  | EC50 [1]: 12 nM; agonist activity (Emax) in the Ishikawa cell functional assay (in words) [1]: lowest residual agonist activity; Emax (maximal alkaline phosphatase activity) [1]: 6.3 ± 1.2%
18 | 8.6 nM | 200 to 202 °C | CCC(=C(c1ccccc1)c1ccc(C=CC(N)=O)cc1)c1ccccc1 [compound 15, 3-[4-(1,2-Diphenyl-but-1-enyl)-phenyl]acrylamide] | 8.9 ± 1.4% | residual agonist activity, uterine weight/body weight (FIG. 1) [2]: less residual agonist activity than tamoxifen; agonist activity (Emax) in the Ishikawa cell functional assay (in words) [1]: lowest residual agonist activity
19 |  |  | CCNC(=O)C=Cc1ccc(C(=C(CC)c2ccccc2)c2ccccc2)cc1 [compound 16, 3-[4-(1,2-Diphenyl-but-1-enyl)-phenyl]-N-ethyl acrylamide] |  | EC50 [1]: 18 nM; Emax (maximal alkaline phosphatase activity) [1]: 11.8 ± 1.9%
20 |  | 182 to 185 °C | CCC(=C(c1ccccc1)c1ccc(C=CC(N)=NO)cc1)c1ccccc1 [compound 17, 1-Amino-3-[4-(1,2-diphenyl-but-1-enyl)-phenyl]-prop-2-ene-1-one oxime] |  | 
21 |  |  | CCC(=C(c1ccccc1)c1ccc(C=CC(=S)N(CC)CC)cc1)c1ccccc1 [compound 21, 3-[4-(1,2-Diphenyl-but-1-enyl)-phenyl]-N,N-diethyl thioacrylamide] |  | EC50 [1]: 6.9 nM; Emax (maximal alkaline phosphatase activity) [1]: 18.8 ± 2.6%
22 | 17 nM | 144 to 146 °C | CCC(=C(c1ccccc1)c1ccc(C=CC(=O)NCCCO)cc1)c1ccccc1 [compound 22, 3-[4-(1,2-Diphenyl-but-1-enyl)-phenyl]-N-(3-hydroxy-propyl)-acrylamide] | 15.3 ± 2.4% | 
